Test results published in ChEMBL document CHEMBL5344403, “Discovery and evaluation of phenacrylanilide derivatives as novel potential anti-liver fibrosis agents” (Eur J Med Chem, 2022).
Activity calls are given as the source filed them. The rule behind the calls is not given here.

Assays:
LX-2 [1] = test: Inhibition of TGF-beta1-induced human LX2 activation at 20 uM pretreated with TGF-beta1 for 1 hr followed by compound addition and measured after 72 hrs by CCK-8 assay relative to control; format: functional
[2] = Antiproliferative activity against human LX2 cells assessed as cell survival rate at 20 uM incubated for 72 hrs by CCK-8 assay; format: toxicity, cell-based; conditions: LX-2 cells, read-out: Activity
LX-2 [3] = test: Antifibrotic activity against TGF-beta1 induced human LX2 cells assessed as reduction of alpha-SMA expression at 20 uM pretreated with TGF-beta1 for 1 hr followed by compound addition and measured after 24 hrs by Western blot analysis; format: functional, cell-based
LX-2 [4] = test: Antifibrotic activity against TGF-beta1 induced human LX2 cells assessed as reduction of fibronectin expression at 20 uM pretreated with TGF-beta1 for 1 hr followed by compound addition and measured after 24 hrs by Western blot analysis; format: functional, cell-based
[5] = Antiproliferative activity against human LO2 cells assessed as inhibition of cell growth incubated for 72 hrs by CCK-8 assay; format: toxicity, cell-based; conditions: LO2 (L02) cells
Mus musculus [6] = test: Anti-hepatic fibrosis activity in CCL4-induced C57BL/6J mouse hepatic fibrosis model assessed as reduction in liver injury at 15 to 30 mg/kg, po measured for 3 weeks; format: functional, organism-based; conditions: dose 15-30 mg/kg
Mus musculus [7] = test: Anti-hepatic fibrosis activity in CCL4-induced C57BL/6J mouse hepatic fibrosis model assessed as reduction in liver weight coefficient at 15 to 30 mg/kg, po measured for 3 weeks; format: functional, organism-based; conditions: dose 15-30 mg/kg
Mus musculus [8] = test: Anti-hepatic fibrosis activity in CCL4-induced C57BL/6J mouse hepatic fibrosis model assessed as decrease in serum ALT level at 15 to 30 mg/kg, po measured for 3 weeks; format: functional, organism-based; conditions: dose 15-30 mg/kg
Mus musculus [9] = test: Anti-hepatic fibrosis activity in CCL4-induced C57BL/6J mouse hepatic fibrosis model assessed as decrease in serum AST level at 15 to 30 mg/kg, po measured for 3 weeks; format: functional, organism-based; conditions: dose 15-30 mg/kg
Mus musculus [10] = test: Anti-hepatic fibrosis activity in CCL4-induced C57BL/6J mouse hepatic fibrosis model assessed as decrease in serum CHO level at 15 to 30 mg/kg, po measured for 3 weeks; format: functional, organism-based; conditions: dose 15-30 mg/kg
Mus musculus [11] = test: Anti-hepatic fibrosis activity in CCL4-induced C57BL/6J mouse hepatic fibrosis model assessed as decrease in serum TG level at 15 to 30 mg/kg, po measured for 3 weeks; format: functional, organism-based; conditions: dose 15-30 mg/kg
Mus musculus [12] = test: Anti-hepatic fibrosis activity in CCL4-induced C57BL/6J mouse hepatic fibrosis model assessed as improvement in liver structural damage at 15 to 30 mg/kg, po measured for 3 weeks by H and E staining based analysis; format: functional, organism-based; conditions: dose 15-30 mg/kg
Mus musculus [13] = test: Anti-hepatic fibrosis activity in CCL4-induced C57BL/6J mouse hepatic fibrosis model assessed as improvement in inflammatory cell infiltration at 15 to 30 mg/kg, po measured for 3 weeks by H and E staining based analysis; format: functional, organism-based; conditions: dose 15-30 mg/kg
Mus musculus [14] = test: Anti-hepatic fibrosis activity in CCL4-induced C57BL/6J mouse hepatic fibrosis model assessed as decrease in collagen deposition in liver at 15 to 30 mg/kg, po measured for 3 weeks by Masson's trichome staining based analysis; format: functional, organism-based; conditions: dose 15-30 mg/kg
Mus musculus [15] = test: Anti-hepatic fibrosis activity in CCL4-induced C57BL/6J mouse hepatic fibrosis model assessed as decrease in collagen deposition in liver at 15 to 30 mg/kg, po measured for 3 weeks by sirius red staining based analysis; format: functional, organism-based; conditions: dose 15-30 mg/kg
Mus musculus [16] = test: Anti-hepatic fibrosis activity in CCL4-induced C57BL/6J mouse hepatic fibrosis model assessed as downregulation of collagen mRNA expression at 30 mg/kg, po measured for 3 weeks by qRT-PCR analysis; format: functional, organism-based
Mus musculus [17] = test: Anti-hepatic fibrosis activity in CCL4-induced C57BL/6J mouse hepatic fibrosis model assessed as downregulation of alpha-SMA mRNA expression at 30 mg/kg, po measured for 3 weeks by qRT-PCR analysis; format: functional, organism-based
Mus musculus [18] = test: Anti-hepatic fibrosis activity in CCL4-induced C57BL/6J mouse hepatic fibrosis model assessed as downregulation of TGF-beta1 mRNA expression at 30 mg/kg, po measured for 3 weeks by qRT-PCR analysis; format: functional, organism-based
Mus musculus [19] = test: Anti-hepatic fibrosis activity in CCL4-induced C57BL/6J mouse hepatic fibrosis model assessed as downregulation of alpha-SMA level at 30 mg/kg, po measured for 3 weeks by Western blot analysis; format: functional, organism-based
Mus musculus [20] = test: Anti-hepatic fibrosis activity in CCL4-induced C57BL/6J mouse hepatic fibrosis model assessed as downregulation of collagen level at 30 mg/kg, po measured for 3 weeks by Western blot analysis; format: functional, organism-based
Mus musculus [21] = test: Anti-hepatic fibrosis activity in CCL4-induced C57BL/6J mouse hepatic fibrosis model assessed as downregulation of collagen level in liver at 30 mg/kg, po measured for 3 weeks by immunohistochemical analysis; format: functional, organism-based
Mus musculus [22] = test: Anti-hepatic fibrosis activity in CCL4-induced C57BL/6J mouse hepatic fibrosis model assessed as downregulation of alpha-SMA level in liver at 30 mg/kg, po measured for 3 weeks by immunohistochemical analysis; format: functional, organism-based
Mus musculus [23] = test: Inhibition of epithelial mesenchymal transition in CCL4-induced C57BL/6J mouse hepatic fibrosis model assessed as […] in N-cadherin protein expression at 15 to 30 mg/kg, po measured for 3 weeks; format: functional, organism-based; conditions: dose 15-30 mg/kg
Mus musculus [24] = test: Inhibition of epithelial mesenchymal transition in CCL4-induced C57BL/6J mouse hepatic fibrosis model assessed as decrease in vimentin protein expression at 15 to 30 mg/kg, po measured for 3 weeks; format: functional, organism-based; conditions: dose 15-30 mg/kg
Mus musculus [25] = test: Antifibrotic activity against CCL4-induced C57BL/6J mouse hepatic fibrosis model assessed as reduction in F4/80+CD11b+ in macrophage at 15 mg/kg, po measured for 3 weeks by flow cytometry analysis relative to control; format: functional; parameters: scale not given: the % may be the effect or the level left
Mus musculus [26] = test: Antifibrotic activity against CCL4-induced C57BL/6J mouse hepatic fibrosis model assessed as reduction in F4/80+CD11b+ in macrophage at 30 mg/kg, po measured for 3 weeks by flow cytometry analysis relative to control; format: functional; parameters: scale not given: the % may be the effect or the level left
Mus musculus [27] = test: Antifibrotic activity against CCL4-induced C57BL/6J mouse hepatic fibrosis model assessed as reduction in CD69/CD4 in Th1 cell cells at 15 mg/kg, po measured for 3 weeks by flow cytometry analysis relative to control; format: functional; parameters: scale not given: the % may be the effect or the level left
Mus musculus [28] = test: Antifibrotic activity against CCL4-induced C57BL/6J mouse hepatic fibrosis model assessed as reduction in CD69/CD4 in Th1 cell cells at 30 mg/kg, po measured for 3 weeks by flow cytometry analysis relative to control; format: functional; parameters: scale not given: the % may be the effect or the level left
Mus musculus [29] = test: Antifibrotic activity against CCL4-induced C57BL/6J mouse hepatic fibrosis model assessed as reduction in CD69/CD8 in […] cell cells at 15 mg/kg, po measured for 3 weeks by flow cytometry analysis relative to control; format: functional; parameters: scale not given: the % may be the effect or the level left
Mus musculus [30] = test: Antifibrotic activity against CCL4-induced C57BL/6J mouse hepatic fibrosis model assessed as reduction in CD69/CD8 in […] cell cells at 30 mg/kg, po measured for 3 weeks by flow cytometry analysis relative to control; format: functional; parameters: scale not given: the % may be the effect or the level left
Mus musculus [31] = test: Antifibrotic activity against CCL4-induced C57BL/6J mouse hepatic fibrosis model assessed as reduction in CD11b/Gr-1 in MDSC cells at 15 mg/kg, po measured for 3 weeks by flow cytometry analysis relative to control; format: functional; parameters: scale not given: the % may be the effect or the level left
Mus musculus [32] = test: Antifibrotic activity against CCL4-induced C57BL/6J mouse hepatic fibrosis model assessed as reduction in CD11b/Gr-1 in MDSC cells at 30 mg/kg, po measured for 3 weeks by flow cytometry analysis relative to control; format: functional; parameters: scale not given: the % may be the effect or the level left
[33] = Toxicity in CCL4-induced C57BL/6J mouse assessed as effect on body weight at 15 to 30 mg/kg, po; format: organism-based; conditions: in vivo, dose 15-30 mg/kg
[34] = Toxicity in CCL4-induced C57BL/6J mouse assessed as effect on creatinine level at 15 to 30 mg/kg, po; format: organism-based; conditions: in vivo, dose 15-30 mg/kg
[35] = Toxicity in CCL4-induced C57BL/6J mouse assessed as effect on uric acid level at 15 to 30 mg/kg, po; format: organism-based; conditions: in vivo, dose 15-30 mg/kg
[36] = Toxicity in CCL4-induced C57BL/6J mouse assessed as effect on urea level at 15 to 30 mg/kg, po; format: organism-based; conditions: in vivo, dose 15-30 mg/kg
[37] = Toxicity in CCL4-induced po dosed C57BL/6J mouse assessed as decrease in spleen weight coefficient; format: organism-based; conditions: in vivo, dose 15-30 mg/kg
[38] = Toxicity in CCL4-induced po dosed C57BL/6J mouse assessed as inflammatory cell infiltration in heart at 15 to 30 mg/kg, po by H and E staining based analysis; format: organism-based; conditions: in vivo, dose 15-30 mg/kg
[39] = Toxicity in CCL4-induced po dosed C57BL/6J mouse assessed as inflammatory cell infiltration in spleen at 15 to 30 mg/kg, po by H and E staining based analysis; format: organism-based; conditions: in vivo, dose 15-30 mg/kg
[40] = Toxicity in CCL4-induced po dosed C57BL/6J mouse assessed as inflammatory cell infiltration in lung at 15 to 30 mg/kg, po by H and E staining based analysis; format: organism-based; conditions: in vivo, dose 15-30 mg/kg

For `COc1ccc(/C=C/C(=O)Nc2cccc(C(=O)NC3CCCC3)c2)cc1`, which inhibition at 20 µM (LX-2 [1]) is on record?
Its inhibition at 20 µM is 30.3%.

And the viability at 72 h, 20 µM [2]?
The viability at 72 h, 20 µM was 77.5%.

What about the Activity (LX-2 [3]) of the same compound?
The Activity was “Active”.

And the Activity (LX-2 [4])?
The Activity was “Active”.

What about the IC50 at 72 h [5] of the same compound?
Its IC50 at 72 h is 105 µM.

And the Activity (Mus musculus [6])?
The Activity was “Active”.

What about the Activity (Mus musculus [7]) of the same compound?
Its Activity is “Active”.

What about the Activity (Mus musculus [8]) of the same compound?
The Activity was “Active”.

And the Activity (Mus musculus [9])?
The Activity was “Active”.

And the Activity (Mus musculus [10])?
Its Activity is “Active”.

What about the Activity (Mus musculus [11]) of the same compound?
Its Activity is “Active”.

And the Activity (Mus musculus [12])?
Its Activity is “Active”.

And the Activity (Mus musculus [13])?
Its Activity is “Active”.

What about the Activity (Mus musculus [14]) of the same compound?
The Activity was “Active”.

What about the Activity (Mus musculus [15]) of the same compound?
The Activity was “Active”.

And the Activity (Mus musculus [16])?
The Activity was “Active”.

And the Activity (Mus musculus [17])?
Its Activity is “Active”.

What about the Activity (Mus musculus [18]) of the same compound?
Its Activity is “Active”.

What about the Activity (Mus musculus [19]) of the same compound?
Its Activity is “Active”.

And the Activity (Mus musculus [20])?
Its Activity is “Active”.

What about the Activity (Mus musculus [21]) of the same compound?
Its Activity is “Active”.

What about the Activity (Mus musculus [22]) of the same compound?
Its Activity is “Active”.

What about the inhibition (Mus musculus [23]) of the same compound?
The inhibition was “Active”.

What about the Activity (Mus musculus [24]) of the same compound?
Its Activity is “Active”.

What about the Activity (Mus musculus [25]) of the same compound?
The Activity was 5.11%.

And the Activity (Mus musculus [26])?
Its Activity is 4.8%.

What about the Activity (Mus musculus [27]) of the same compound?
Its Activity is 1.21%.

And the Activity (Mus musculus [28])?
The Activity was 1.19%.

What about the Activity (Mus musculus [29]) of the same compound?
The Activity was 1.54%.

What about the Activity (Mus musculus [30]) of the same compound?
Its Activity is 1.45%.

And the Activity (Mus musculus [31])?
Its Activity is 1.9%.

What about the Activity (Mus musculus [32]) of the same compound?
The Activity was 1.86%.

What about the Activity [33] of the same compound?
The Activity was “Non-Toxic”.

What about the Activity [34] of the same compound?
Its Activity is “Non-Toxic”.

And the Activity [35]?
The Activity was “Non-Toxic”.

And the Activity [36]?
Its Activity is “Non-Toxic”.

What about the Activity [37] of the same compound?
Its Activity is “Dose-Dependent Effect”.

What about the Activity [38] of the same compound?
The Activity was “Non-Toxic”.

And the Activity [39]?
Its Activity is “Non-Toxic”.

And the Activity [40]?
Its Activity is “Non-Toxic”.
